For data set [1], the system named is human leukocytes (basophils). Description: Inhibition of human leukocyte (basophil) histamine release in vitro (rabbit anti-human IgE). The data set is classed as cell-based. Particulars: Leukocyte, 1 h, Table A, 60 minutes at 37° C., Int. = interference with test procedure, read-out: Inhibition IC50 (histamine release from human leukocytes (basophils)). Here is the method: Separation of Leukocytes: A modification of the method of L. Lichtenstein and A. Osler, J.Exp.Med. 120, 507 (1964) was used. Heparinized human blood (80-100 ml) is mixed with 20 ml of saline (0.2%) containing 0.6 gm of dextrose and 1.2 gm dextran in propylene centrifuge tubes. The mixture is kept at ambient temperature for 60-90 minutes to allow the separation of erythrocytes from the platelet-leukocyte-rich supernate. The supernate is removed and centrifuged for 8 minutes at 110×g in cold. The leukocyte pellet is washed 2× with Tris buffer and finally suspended in 150-180 ml Tris-ACM buffer at 1-2×10^6 cells/ml. 2. Reaction Mixture: The reaction is carried out in 12×75 mm plastic tubes at a total volume of 1.25 ml. The reaction medium includes 0.05 ml rabbit anti-human IgE (the antigen), 0.2 ml of the test compound in water at concentrations ranging from 10-1000 μM, and 1.0 ml of the leukocyte suspension. The reaction mixture is incubated in a 37° C. shaking water bath for 60 minutes. Upon completion of the reaction, the tubes are centrifuged and the supernatants collected. The protein is removed from the supernatants by precipitation with 0.2 ml of 8% perchloric acid. 3. Histamine Assay: Histamine release is measured by the automated fluorometric method of W. Siraganian and W. Hook in Chapter 102 of the Manual of Clinical Immunology, 2nd Edition, Edited by R. Rose and H. Friedman, Published by the American Society for Microbiology, Washington, D.C. 1980. Percent inhibition is calculated as follows: [formula] The concentration which causes a 50 percent inhibition (IC50) of histamine release is interpolated from a plot of percent inhibition versus logarithm of drug concentration.

In data set [2] the test system is isolated guinea pig ileum. Description: Antagonism of histamine-induced contraction of isolated guinea pig ileum. The class given is cell-based. To be noted: Cavia porcellus; Table C; histamine final concentration 0.2 μg/ml; read-out: Inhibition IC50 (histamine-induced contraction of isolated guinea pig ileum). How it is done:
The antagonism of the effects of histamine on the contraction of isolated guinea pig ileum by the compounds of formula I can be determined by the procedure of G. Possanza, A. Bauen, and P. Stewart, Int. Arch. Allergy Appl. Immunol., 49, 289 (1975). The degree of inhibition is determined as the difference between the contraction caused by histamine (final concentration 0.2 μg/ml) alone and that seen in the presence of both histamine and the test compound. The inhibitory activity of the test compound is expressed as that concentration of the compound which causes a 50% reduction of the contractile response (IC50).

Data set [3] deals with rat peritoneal mast cells. Nature of the data set: Inhibition of rat peritoneal mast cell histamine release. The data set is classed as cell-based. Particulars: Table B, in vitro, sheep anti-rat IgE or ovalbumin, 60 minutes at 37° C., Int. = interference with test procedure; for IC50: Mast cell, 1 h, read-out: Inhibition IC50 (histamine release from rat peritoneal mast cells). How it is done:
Harvest of Peritoneal Mast Cells: After the rats are sacrificed with ether, 20 ml of Minimum Essential Medium (MEM) containing 20 units/ml heparin is injected into the peritoneum. The abdomen is massaged for one minute and the lavage fluid collected. The peritoneal cells are centrifuged at 1800 rpm for 8 minutes in cold. After two washes with Tris A buffer, the cells are resuspended in Tris ACM buffer at 2-33 10^6 cells/ml. 2. Reaction Mixture: The reaction is carried out in 12×75 mm plastic tubes at a total volume of 1.25 ml. The reaction mixture includes 0.5 ml (10-1000 μg) sheep anti-rat IgE or ovalbumin, 0.2 ml of the test compound in water at concentrations ranging from 10-1000 μM, 0.5 ml phosphatidylserine solution (20-60 μg to each tube), and 0.5 ml of cell suspension. The reaction mixture is incubated in a 37° C. shaking water bath for 60 minutes. Upon completion of the reaction, the tubes are centrifuged and the supernatants collected. The protein is removed from the supernatants by precipitation with 0.2 ml of 8% perchloric acid. 3. Histamine Assay: Histamine release is measured by the automated fluorometric method of Siraganian, supra. The concentration which causes a 50% inhibition (IC50) of histamine release is computed as in Part A.

The next data set deals with CNS. Nature of the data set: Standard mouse neuropharmacological profile. The class given is in vivo. The text has this:
With the exception of the compounds wherein R4 is a lower alkyl group from 7 to 12 carbon atoms, the compounds of formula I inhibit in vitro the histamine-induced contraction of isolated guinea pig ileum and are useful in warm-blooded animals for antagonizing the action of histamine at the histamine (H1) receptor. Accordingly, the compounds of formula I can be employed as antihistamine agents for the treatment of allergic disorders, for example allergic rhinitis, vasomotor rhinitis, allergic conjunctivitis, hay fever, urticaria, and food allergies. Certain compounds of formula I lack the CNS side effects, such as sedation, normally associated with antihistamine therapy.

Structures can show the parent of a compound that is named as a salt.

As to `O=C(NCCCN1CCN(Cc2ccc(Cl)cc2)CC1)Nc1ccccc1` [Example 9, 1-{3-[4-(4-Chlorobenzyl)piperazin-1-yl]propyl}-3-phenylurea], the figures for the IC50 in data set [1], in data set [2] and in data set [3] were 78 µM, 0.05 µM and over 1000 µM, respectively.
With `CCOC(=O)c1ccc(NC(=O)NCCCN2CCN(Cc3ccc(Cl)cc3)CC2)cc1.Cl` [Example 13, 1-{3-[4-(4-Chlorobenzyl)piperazin-1-yl]propyl}-3-(4-ethoxycarbonylphenyl)urea hydrochloride], the IC50 – broadly, the midpoint of a concentration-inhibition curve – in data set [1] was 190 µM; in data set [2], 0.11 µM. Moreover, the CNS effects result in the data set with CNS is reported as “not to exert significant CNS effects”.
On to `Cl.O=C(NCCCN1CCN(Cc2ccc(Cl)cc2)CC1)Nc1ccc(C(=O)O)cc1` [Example 14, 1-{3-[4-(4-Chlorobenzyl)piperazin-1-yl]propyl}-3-(4-carboxyphenyl)urea hydrochloride], for which the IC50 in data set [1] is over 1000 µM; in data set [2], 0.21 µM. In addition, the CNS effects entry with CNS is “not to exert significant CNS effects”.
Consider `N#Cc1ccc(NC(=O)NCCCN2CCN(Cc3ccc(Cl)cc3)CC2)cc1` [Example 24, 1-{3-[4-(4-Chlorobenzyl)piperazin-1-yl]propyl}-3-(4-cyanophenyl)urea dihydrochloride monohydrate], for which the half-inhibitory concentration (IC50) in data set [1] turned out to be 81 µM; in data set [2] it was 0.008 µM; in data set [3], 150 µM.
Consider `CCCCCCNC(=O)NCCCN1CCN(CCCc2ccc(Cl)cc2)CC1.Cl.Cl` [Example 25, 1-{3-[4-[3-(4-Chlorophenyl)propyl]piperazin-1-yl]propyl}-3-n-hexylurea dihydrochloride], for which the IC50 in data set [1] is 10 µM; in data set [2], 0.13 µM. The “Inhibition IC50 (histamine release from rat peritoneal mast cells)” value in data set [3] is listed as “Int”.

Values taken from patent publication US4579947A, “Substituted phenylalkylpiperazinylpropyl (ureas or thioureas) useful for treatment of immunological, inflammatory and allergic disorder” (Boehringer Ingelheim Pharmaceuticals, Inc., priority 1984, dated 1986).
